# Laboratory results as given in patent publication US20220062240A1, “METHODS OF TREATING CANCER USING A CLK INHIBITOR” (BioSplice Therapeutics, Inc., priority 2018, published 2022).
# Where two headings read alike, the source gives them in different places.
# Key:
# CLK2 = biological target: T1, CLK2 (Homo sapiens, UniProt P49760); experiment: CLK2 kinase activity assay (Z-lyte, Ser/Thr 6 peptide); type: biochemical; conditions: recombinant CLK2 kinase, ATP 60 μM; read-out: EC50
# T1 construct: purchased Thermo Fisher (Life Technologies), Z'-LYTE Kinase Assay Kits
# Description: All reactions were performed in duplicate.
# BT-549 = experiment: CellTiter-Glo Viability Assay, breast cancer; type: cell-based; conditions: Homo sapiens, 96 h; BT-549, breast cancer, four days; read-out: EC50
# CAMA1 = experiment: CellTiter-Glo Viability Assay, breast cancer; type: cell-based; conditions: Homo sapiens, CAMA-1, 96 h; CAMA1, breast cancer, four days; read-out: EC50
# DU4475 = experiment: CellTiter-Glo Viability Assay, breast cancer; type: cell-based; conditions: Homo sapiens, DU-4475, 96 h; DU4475, breast cancer, four days; read-out: EC50
# HCC1599 = experiment: CellTiter-Glo Viability Assay, breast cancer; type: cell-based; conditions: Homo sapiens, 96 h; HCC1599, breast cancer, four days; read-out: EC50
# MCF7 = experiment: CellTiter-Glo Viability Assay, breast cancer; type: cell-based; conditions: Homo sapiens, 96 h; MCF7, breast cancer, four days; read-out: EC50
# MDA-MB-231-Luc = experiment: CellTiter-Glo Viability Assay, breast cancer; type: cell-based; conditions: Homo sapiens, 96 h; MDA-MB-231-Luc, breast cancer, four days; read-out: EC50
# T47D = experiment: CellTiter-Glo Viability Assay, breast cancer; type: cell-based; conditions: Homo sapiens, 96 h, breast cancer, four days, read-out: EC50
# ZR-75-1 = experiment: CellTiter-Glo Viability Assay, breast cancer; type: cell-based; conditions: Homo sapiens, 96 h; ZR-75-1, breast cancer, four days; read-out: EC50
# all 50 cell lines = experiment: CellTiter-Glo Viability Assay, average across all cell lines; type: cell-based; conditions: Homo sapiens; across all 50 cell lines; read-out: average EC50 for inhibition of cancer cell proliferation
# Procedure, shortened: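 4-day proliferation, 37° C/5% CO2; 300-3,000 cells/well; compound in duplicate vs DMSO controls. Panel: breast, colorectal, heme/lymphoid, liver, lung, ovarian, pancreatic, prostate lines. Read-out: CellTiter-Glo ATP luminescence, EC50 from dose-response.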
# [1] = tested on: colorectal cancer (6 cell lines); experiment: CellTiter-Glo Viability Assay, colorectal cancer; type: cell-based; conditions: Homo sapiens, inhibition of cancer cell proliferation
# [2] = tested on: haematopoietic & lymphoid tumors (13 cell lines); experiment: CellTiter-Glo Viability Assay, haematopoietic & lymphoid tumors; type: cell-based; conditions: Homo sapiens, inhibition of cancer cell proliferation
# [3] = tested on: liver cancer (3 cell lines); experiment: CellTiter-Glo Viability Assay, liver cancer; type: cell-based; conditions: Homo sapiens, inhibition of cancer cell proliferation
# [4] = tested on: lung cancer (4 cell lines); experiment: CellTiter-Glo Viability Assay, lung cancer; type: cell-based; conditions: Homo sapiens, inhibition of cancer cell proliferation
# [5] = tested on: ovarian cancer (4 cell lines); experiment: CellTiter-Glo Viability Assay, ovarian cancer; type: cell-based; conditions: Homo sapiens, inhibition of cancer cell proliferation
# [6] = tested on: pancreatic cancer (8 cell lines); experiment: CellTiter-Glo Viability Assay, pancreatic cancer; type: cell-based; conditions: Homo sapiens, inhibition of cancer cell proliferation
# [7] = tested on: prostate cancer (5 cell lines); experiment: CellTiter-Glo Viability Assay, prostate cancer; type: cell-based; conditions: Homo sapiens
# CLK3 = CLK3 (Homo sapiens, UniProt P49761); experiment: CLK3 kinase activity assay (Z-lyte, Ser/Thr 18 peptide)
# Chain of CLK3 (P49761 whole entry): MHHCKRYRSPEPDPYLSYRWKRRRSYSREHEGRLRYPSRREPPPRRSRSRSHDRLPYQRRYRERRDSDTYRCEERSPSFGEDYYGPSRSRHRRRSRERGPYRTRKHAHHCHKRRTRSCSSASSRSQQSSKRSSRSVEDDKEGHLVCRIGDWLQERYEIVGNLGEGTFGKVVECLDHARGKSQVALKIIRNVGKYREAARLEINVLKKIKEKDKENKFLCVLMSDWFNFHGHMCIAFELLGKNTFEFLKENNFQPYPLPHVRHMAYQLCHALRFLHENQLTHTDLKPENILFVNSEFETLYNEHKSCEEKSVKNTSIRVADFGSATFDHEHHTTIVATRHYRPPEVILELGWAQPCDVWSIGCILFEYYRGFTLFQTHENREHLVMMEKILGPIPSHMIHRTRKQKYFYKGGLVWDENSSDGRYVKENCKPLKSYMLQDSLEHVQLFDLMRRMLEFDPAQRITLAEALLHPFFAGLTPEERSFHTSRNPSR
# T1 sequence (P49760 whole entry): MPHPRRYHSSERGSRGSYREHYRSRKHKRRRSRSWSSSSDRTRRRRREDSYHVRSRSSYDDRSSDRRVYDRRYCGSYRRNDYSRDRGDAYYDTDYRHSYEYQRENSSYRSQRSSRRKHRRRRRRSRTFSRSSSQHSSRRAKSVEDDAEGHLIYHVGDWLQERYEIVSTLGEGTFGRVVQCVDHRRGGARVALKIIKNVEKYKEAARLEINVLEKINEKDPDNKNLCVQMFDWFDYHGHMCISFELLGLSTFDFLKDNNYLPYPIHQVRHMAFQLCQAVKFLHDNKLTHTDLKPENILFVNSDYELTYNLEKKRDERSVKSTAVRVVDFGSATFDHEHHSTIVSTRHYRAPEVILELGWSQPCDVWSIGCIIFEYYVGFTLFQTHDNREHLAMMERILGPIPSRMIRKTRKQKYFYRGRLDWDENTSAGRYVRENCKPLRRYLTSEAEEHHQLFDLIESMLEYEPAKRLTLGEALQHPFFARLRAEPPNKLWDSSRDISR
smiles,measurement,setting,value
CN1CCC2(CC1)CN(c1cc(C(=O)Nc3cc4cc(-c5cnn(C)c5)ccc4cn3)ccn1)C2 [Compound 71],EC50,CLK2,1.1 nM
same,EC50,BT-549,215 nM
same,EC50,CAMA1,307 nM
same,EC50,DU4475,140 nM
same,EC50,HCC1599,177 nM
same,EC50,MCF7,860 nM
same,EC50,MDA-MB-231-Luc,292 nM
same,EC50,T47D,493 nM
same,EC50,ZR-75-1,365 nM
same,EC50,all 50 cell lines,232 nM
same,EC50,"[1]; HCT-116, HCT116 cell line, read-out: Colorectal cancer, EC50 (μM) HCT116",0.105 µM
same,EC50,"[1]; HT-29, HT29 cell line, read-out: Colorectal cancer, EC50 (μM) HT29",0.247 µM
same,EC50,"[1]; SW-620, SW620 cell line, read-out: Colorectal cancer, EC50 (μM) SW620",0.068 µM
same,EC50,"[1]; DLD-1 cell line, read-out: Colorectal cancer, EC50 (μM) DLD-1",0.137 µM
same,EC50,"[1]; SW48 cell line, read-out: Colorectal cancer, EC50 (μM) SW48",0.052 µM
same,EC50,"[1]; SW480 cell line, read-out: Colorectal cancer, EC50 (μM) SW480",0.145 µM
same,EC50,"[2]; DND41, DND-41 cell line, read-out: Haematopoietic & Lymphoid tumors, EC50 (μM) DND-41",0.191 µM
same,EC50,"[2]; MV4-11, MV-4-11 cell line, read-out: Haematopoietic & Lymphoid tumors, EC50 (μM) MV-4-11",0.056 µM
same,EC50,"[2]; Rec1, REC-1 cell line, read-out: Haematopoietic & Lymphoid tumors, EC50 (μM) REC-1",0.061 µM
same,EC50,"[2]; SU-DHL-4, SUDHL4 cell line, read-out: Haematopoietic & Lymphoid tumors, EC50 (μM) SUDHL4",0.208 µM
same,EC50,"[2]; HL-60 cell line, read-out: Haematopoietic & Lymphoid tumors, EC50 (μM) HL-60",0.432 µM
same,EC50,"[2]; JM1 cell line, read-out: Haematopoietic & Lymphoid tumors, EC50 (μM) JM1",0.054 µM
same,EC50,"[2]; JURKAT, Clone E6-1 cell line, read-out: Haematopoietic & Lymphoid tumors, EC50 (μM) JURKAT, Clone E6-1",0.431 µM
same,EC50,"[2]; JeKo-1 cell line, read-out: Haematopoietic & Lymphoid tumors, EC50 (μM) JeKo-1",0.062 µM
same,EC50,"[2]; KASUMI-1 cell line, read-out: Haematopoietic & Lymphoid tumors, EC50 (μM) KASUMI-1",0.129 µM
same,EC50,"[2]; Loucy cell line, read-out: Haematopoietic & Lymphoid tumors, EC50 (μM) Loucy",0.146 µM
same,EC50,"[2]; MOLT-4 cell line, read-out: Haematopoietic & Lymphoid tumors, EC50 (μM) MOLT-4",0.2 µM
same,EC50,"[2]; TF-1 cell line, read-out: Haematopoietic & Lymphoid tumors, EC50 (μM) TF-1",0.368 µM
same,EC50,"[2]; TOLEDO cell line, read-out: Haematopoietic & Lymphoid tumors, EC50 (μM) TOLEDO",0.073 µM
same,EC50,"[3]; SNU-398, SNU398 cell line, read-out: Liver cancer, EC50 SNU398",48 nM
same,EC50,"[3]; HEPG2 cell line, read-out: Liver cancer, EC50 HEPG2",165 nM
same,EC50,"[3]; PLC/PRF/5 cell line, read-out: Liver cancer, EC50 PLC/PRF/5",459 nM
same,EC50,"[4]; A-427, A427 cell line, read-out: Lung cancer, EC50 (μM) A427",0.198 µM
same,EC50,"[4]; HCC78, HCC-78 cell line, read-out: Lung cancer, EC50 (μM) HCC-78",0.304 µM
same,EC50,"[4]; NCI-H460 cell line, read-out: Lung cancer, EC50 (μM) NCI-H460",0.248 µM
same,EC50,"[4]; NCI-H522 cell line, read-out: Lung cancer, EC50 (μM) NCI-H522",0.095 µM
same,EC50,"[5]; PA-1, PA1 cell line, read-out: Ovarian cancer, EC50 (μM) PA1",0.209 µM
same,EC50,"[5]; TOV112D, TOV-112D cell line, read-out: Ovarian cancer, EC50 (μM) TOV-112D",0.117 µM
same,EC50,"[5]; OV-90 cell line, read-out: Ovarian cancer, EC50 (μM) OV-90",0.334 µM
same,EC50,"[5]; OVCAR-3 cell line, read-out: Ovarian cancer, EC50 (μM) OVCAR-3",0.092 µM
same,EC50,"[6]; BXPC-3, BxPC3 cell line, read-out: Pancreatic cancer, EC50 BxPC3",383 nM
same,EC50,"[6]; CAPAN-1, Capan1 cell line, read-out: Pancreatic cancer, EC50 Capan1",225 nM
same,EC50,"[6]; Capan-2, Capan2 cell line, read-out: Pancreatic cancer, EC50 Capan2",344 nM
same,EC50,"[6]; MIA PaCa-2 cell line, read-out: Pancreatic cancer, EC50 MIA PaCa-2",90 nM
same,EC50,"[6]; PANC 05.04 cell line, read-out: Pancreatic cancer, EC50 PANC 05.04",289 nM
same,EC50,"[6]; PANC-1 cell line, read-out: Pancreatic cancer, EC50 PANC-1",352 nM
same,EC50,"[6]; UPAFII cell line, read-out: Pancreatic cancer, EC50 UPAFII",140 nM
same,EC50,"[7]; DU-145, read-out: Prostate cancer EC50 Du-145",252 nM
same,EC50,"[7]; PC-3, PC3 cell line, inhibition of cancer cell proliferation, read-out: Prostate cancer EC50 PC3",205 nM
same,EC50,"[7]; 22Rv1 cell line, inhibition of cancer cell proliferation, read-out: Prostate cancer EC50 22Rv1",232 nM
same,EC50,"[7]; LNCap clone FGC cell line, inhibition of cancer cell proliferation, read-out: Prostate cancer EC50 LNCap clone FGC",333 nM
same,EC50,"[7]; VCaP (Sigma) cell line, inhibition of cancer cell proliferation, read-out: Prostate cancer EC50 VCaP (Sigma)",466 nM
same,EC50,CLK3,16.2 nM
